Paper PMC11200976, “Pitavastatin Calcium Confers Fungicidal Properties to Fluconazole by Inhibiting Ubiquinone Biosynthesis and Generating Reactive Oxygen Species” (Antioxidants, 2024)
Like-named read-outs stand apart in the source and are kept apart here.

Key:
C. albicans [1] = test: Murine invasive C. albicans infections (C57BL/6 mice); assay type: in vivo, Candida albicans
Procedure: . Before commencing drug therapy, the mice were inoculated with 200 μL of PBS containing 2 × 10^5 C. albicans cells via the lateral tail vein. […]. The mice were weighed, and their weights were recorded every three days while their survival was monitored daily for 30 days. Two-tailed unpaired t-tests were employed to assess the weight changes. Kaplan–Meier analyses were employed to assess the survival probabilities, while log-rank testing was utilized to determine the statistical significance of the survival curves. In the case of fungal burden analyses, the mice were closely monitored twice daily for any indications of infection and were euthanized humanely upon reaching the predetermined endpoints. Subsequently, each mouse’s spleen, liver, and kidneys were harvested and homogenized in sterile PBS after sacrifice, followed by streaking onto SDA agar plates. Following a 48 h incubation period, the colonies were quantified, and colony-forming units (CFUs) were calculated. For histopathological analysis, kidney tissues from mice infected for 6 or 10 days were procured and fixed in buffered formalin. Subsequently, the tissues were embedded in paraffin, sectioned into 3–4 μm slices, and subjected to PAS staining using established protocols. All experimental procedures involving animals were approved by the Tongji University Animal Care Committee (No.: TJAA00322101).

[2] = system: Candida guilliermondii clinical isolates; test: Supra-MIC growth (SMG) of FLC in clinical isolates; assay type: cell-based; settings: n = 7 isolates
[3] = system: Candida glabrata clinical isolates; test: Supra-MIC growth (SMG) of FLC in clinical isolates; assay type: cell-based; settings: n = 4 isolates
C. albicans [4] = test: MIC assays (CLSI M27 broth microdilution); assay type: cell-based, Candida albicans; settings: for MIC: Candida albicans
Procedure: The MIC assays for C. albicans were conducted following the broth microdilution protocol outlined by the Clinical and Laboratory Standards Institute (CLSI) protocols (M27, 4th edition). In brief, FDA-approved drugs were diluted in 96-well plates at two-fold the final concentration, with 4 μg/mL FLC. This dilution was combined with the cell suspension with a concentration of 1 × 10^3 cells/mL. The plates were incubated at a temperature of 30 °C for 48 h without agitation.

C. albicans [5] = test: Determination of MFC; assay type: cell-based, Candida albicans; settings: for MFC: Candida albicans
Procedure: The determination of MFC followed the previously described method. In brief, a tested drug at a concentration two times higher than the final concentration was diluted in a two-fold serial dilution manner across ten columns of the plate, with each well containing 100 μL of the drug. Subsequently, 100 μL of C. albicans cultures (1 × 10^4 cells/mL) were transferred into wells with and without any drugs as the control. Following incubation at 30 °C for 48 h, a 200 μL aliquot per well was removed and evenly spread on SDA plates, which were then incubated at 30 °C for 48 h. The MFC value was determined as the lowest drug concentration at which 99.9% of fungal colonies were eradicated compared to the control group.

[6] = system: C. albicans clinical isolates; test: Supra-MIC growth (SMG) of FLC in clinical isolates; assay type: cell-based, Candida albicans; settings: n = 7 isolates
C. albicans [7] = test: Dose–matrix titration assays (synergy, with YPD recovery plates); assay type: cell-based, Candida albicans
Procedure: The synergistic effects of drugs were conducted following the same procedure as the MIC assays. Specifically, 50 μL of drug A was distributed through two-fold serial dilution across seven plate columns. Subsequently, 50 μL of drug B was distributed in a two-fold serial dilution manner along seven rows of the plate. Furthermore, 100 μL of C. albicans cultures, adjusted to a density of 1 × 10^3 cells/mL, was dispensed into wells containing drugs and one control well devoid of any drugs. Before the 48 h OD600 readings, the plates were subjected to meticulous agitation to ensure the deposition of a representative 2 μL aliquot from each well onto newly prepared YPD recovery plates, thereby facilitating the evaluation of cellular recuperation following drug treatments. The recovery plates were subsequently incubated at a temperature of 30 °C for a duration ranging from 24 to 48 h, after which they were photographed. The experimental procedures were conducted in triplicate to ensure reliability and reproducibility.

[8] = Acute toxicity, Up-and-Down procedure (OECD 425), intraperitoneal; assay type: in vivo; settings: C57BL/6, mouse, in vivo, ip, mice
Procedure: (§1) Following a previously described methodology, the intraperitoneal route was employed in adult mice. In brief, the primary test involved a sequential administration of doses at intervals of at least 48 h, with one mouse being dosed at a time. Initially, a dose below LD50 was administered intraperitoneally to a mouse. If the mouse survived, the subsequent mouse would receive 1.3 times the initial dose. Conversely, if the mouse died, the subsequent mouse would receive a dose decreased by 1.3 times the initial dose. Each mouse was monitored for 48 h before determining the subsequent mouse’s dosage and administration. The experiment was terminated upon five “survive or die” reversals within a consecutive set of six animals tested. Subsequently, the LD50 and its corresponding confidence interval were computed based on the conditions observed in all mice after the experiment.

[9] = system: ERG1, ERG11, and ERG251 genes; assay type: cell-based, Candida albicans; settings: 2 μM PIT alone, 8 h
C. albicans [10] = test: Spotting assay; assay type: cell-based, Candida albicans; settings: 4 μM PIT; compared to wild-type strain and other heterozygous gene deletion mutants
Procedure: The spotting assays were conducted following the previously described method. In summary, C. albicans cultures were adjusted to a cell density of 1 × 10^7 cells/mL using a hemacytometer. Subsequently, the cultures were serially diluted 1:10 and spotted onto a designated YPD solid medium containing specified concentrations of compounds. Following incubation at 30 °C for 48 h, photographs capturing the cell growth were taken, and the assays were replicated thrice.

[11] = system: C. albicans SC5314, SN152, cmp1-aid∆/cmp1-aid∆, and PADH1-UPC2 strains; test: FLC disk diffusion assays (25 μg FLC disk, 5 μM adjuvant); assay type: cell-based, Candida albicans; settings: for effect on FLC tolerance in FLC disk diffusion, all four strains: SC5314, SN152, cmp1-aid∆/cmp1-aid∆
Procedure: Yeast cells were cultured overnight at a temperature of 30 °C, and the resulting cell suspension was diluted to a concentration of 1 × 10^7 cells/mL in phosphate-buffered saline (PBS). At a concentration of 5 μM, the drugs were individually added to YPD plates for disk assays using a 25 μg FLC disk (6 mm, Liofilchem, Roseto degli Abruzzi, Italy). The plates were then incubated at 30 °C for 48 h. Subsequently, the disk was transferred to a drug-free YPD plate, which was incubated at 30 °C for 24 h and photographed.

C. albicans [12] = test: Broth microdilution assay of synergistic lethality with 4 μg/mL FLC (recovery on drug-free YPD); assay type: cell-based, Candida albicans; settings: for Synergistic lethal concentrations: concentration of the compound that is synergistically lethal with 4 μg/mL FLC, C. albicans, recovery on drug-free YPD
mice = test: Acute toxicity, Up-and-Down procedure (OECD 425), intraperitoneal; assay type: in vivo
Procedure: as §1

## OC(Cn1cncn1)(Cn1cncn1)c1ccc(F)cc1F [FLC, Fluconazole]
C. albicans [1]; after 1 mg/kg FLC ip for 3 days, 6 or 10 days after infection
  kidney fungal burden in cmp1-aidΔ/cmp1-aidΔ infected group compared to cmp1Δ/cmp1Δ infected group: notably greater
C. albicans [1]; clinical isolate 283, FLC 4 mg/kg, PIT 3 mg/kg, 30-day observation period
  mortality rate: 50%
C. albicans [1]; clinical isolate 283, FLC 4 mg/kg, PIT 3 mg/kg, ten mice per group
  average weight loss on the 15th day of infection: 1.16 ± 0.63 g
[2]; FLC alone
  SMG value of FLC: 0.0667
[2]; in combination with PIT, p = 0.0362
  SMG value of FLC: 0.0166
[3]; FLC alone
  SMG value of FLC: 0.3169
[3]; in combination with PIT, p = 0.0442
  SMG value of FLC: 0.0031
C. albicans [4]; SEC14/sec14△, YPD + 0.5 μM PIT, read-out: MIC of FLC
  MIC: 1 µg/mL
C. albicans [4]; SEC14/sec14△, YPD + 1 μM PIT, read-out: MIC of FLC
  MIC: 0.5 µg/mL
C. albicans [4]; SEC14/sec14△, YPD, read-out: MIC of FLC
  MIC: 1 µg/mL
C. albicans [4]; SN152, YPD, read-out: MIC of FLC
  MIC: 1 µg/mL
C. albicans [4]; read-out: MIC of FLC, age3△/age3△, YPD + 0.5 μM PIT
  MIC: 0.25 µg/mL
C. albicans [4]; read-out: MIC of FLC, age3△/age3△, YPD + 1 μM PIT
  MIC: 0.125 µg/mL
C. albicans [5]; absence of PIT
  MFC: > 64 µg/mL
C. albicans [5]; in the presence of PIT (1 μM)
  MFC: 2 µg/mL
C. albicans [5]; in the presence of 1 μM PIT
  ratio of MFC to MIC of FLC: 4
[6]; FLC alone
  SMG value of FLC: 0.1203
[6]; in combination with PIT, p = 0.002
  SMG value of FLC: 0

## O=C(O)C[C@H](O)C[C@H](O)/C=C/c1c(C2CC2)nc2ccccc2c1-c1ccc(F)cc1 [PIT, pitavastatin calcium]
C. albicans [7]; FLC ≤4 μg/mL, YPD, 30 °C, 48 h
  concentration that renders FLC fungicidal (no recovery on YPD solid medium): ≤ 3.125 µM
C. albicans [4]; 100 μM exogenous ergosterol, SN152, MIC and spotting assays
  antifungal efficacy of PIT with exogenous ergosterol: negated
C. albicans [4]; 100 μM exogenous mevalonate, SN152, MIC and spotting assays
  antifungal effects of PIT with exogenous mevalonate: mitigated
C. albicans [4]; SEC14/sec14△, YPD, read-out: MIC of PIT
  MIC: 2 µM
C. albicans [4]; SN152, YPD, read-out: MIC of PIT
  MIC: 2 µM
C. albicans [4]; age3△/age3△, YPD, read-out: MIC of PIT
  MIC: 2 µM
C. albicans [4]; control strain (wild-type), read-out: MIC of PIT
  MIC: 3.12 µg/mL
C. albicans [4]; hac1△/hac1△, YPD, read-out: MIC of PIT
  MIC: 2 µM
C. albicans [4]; hse1△/hse1△, YPD, read-out: MIC of PIT
  MIC: 2 µM
C. albicans [4]; ire1△/ire1△, YPD, read-out: MIC of PIT
  MIC: 2 µM
C. albicans [4]; mvb12△/mvb12△, YPD, read-out: MIC of PIT
  MIC: 2 µM
C. albicans [4]; read-out: MIC of PIT, erg11∆/erg11∆ null mutant
  MIC: 0.195 µg/mL
C. albicans [4]; snf7△/snf7△, YPD, read-out: MIC of PIT
  MIC: 2 µM
C. albicans [4]; vps20△/vps20△, YPD, read-out: MIC of PIT
  MIC: 2 µM
C. albicans [4]; vps22△/vps22△, YPD, read-out: MIC of PIT
  MIC: 2 µM
C. albicans [4]; vps23△/vps23△, YPD, read-out: MIC of PIT
  MIC: 2 µM
C. albicans [4]; vps28△/vps28△, YPD, read-out: MIC of PIT
  MIC: 2 µM
C. albicans [4]; vps36△/vps36△, YPD, read-out: MIC of PIT
  MIC: 2 µM
[8]
  LD50 at 48 h: 104 mg/kg
[9]
  mRNA expression level of ERG1 gene, upregulation: 2 fold
  mRNA expression level of ERG11 gene, upregulation: 2 fold
  mRNA expression level of ERG251 gene, upregulation: 2 fold
C. albicans [10]
  susceptibility of HMG1/hmg1Δ, ERG8/erg8Δ and IDI1/idi1Δ mutants to PIT: more susceptible
[11]; PADH1-UPC2
  effect on FLC tolerance in FLC disk diffusion, all four strains: made FLC fungicidal
C. albicans [12]; with 4 μg/mL FLC, tested 100 μM to 0.1953 μM, 30 °C, 48 h
  synergistic lethal concentration (converts FLC from fungistatic to fungicidal): ≤ 6.25 µM
C. albicans [5]; as low as
  concentration of PIT that renders FLC fungicidal: 1 µM

## CC[C@@H]1/C=C(\C)C[C@H](C)C[C@H](OC)[C@H]2O[C@@](O)(C(=O)C(=O)N3CCCC[C@H]3C(=O)O[C@H](/C(C)=C/[C@@H]3CC[C@H](Cl)[C@H](OC)C3)[C@H](C)[C@@H](O)CC1=O)[C@H](C)C[C@@H]2OC [pimecrolimus]
C. albicans [7]; FLC ≤4 μg/mL, YPD, 30 °C, 48 h
  concentration that renders FLC fungicidal (no recovery on YPD solid medium): ≤ 3.125 µM
[8]
  LD50 at 48 h: 42 mg/kg
[11]; PADH1-UPC2
  effect on FLC tolerance in FLC disk diffusion, all four strains: made FLC fungicidal
C. albicans [12]
  Synergistic lethal concentrations: 0.1953 µM

## Oc1cc(Cl)ccc1Oc1ccc(Cl)cc1Cl [triclosan]
C. albicans [7]; FLC ≤4 μg/mL, YPD, 30 °C, 48 h
  concentration that renders FLC fungicidal (no recovery on YPD solid medium): ≤ 3.125 µM
[8]
  LD50 at 48 h: 62.6 mg/kg
[11]; PADH1-UPC2
  effect on FLC tolerance in FLC disk diffusion, all four strains: made FLC fungicidal
C. albicans [12]
  Synergistic lethal concentrations: 0.3906 µM

## Cc1ccc(Sc2ccccc2N2CCNCC2)c(C)c1 [vortioxetine]
C. albicans [7]; FLC ≤4 μg/mL, YPD, 30 °C, 48 h
  concentration that renders FLC fungicidal (no recovery on YPD solid medium): ≤ 3.125 µM
[8]
  LD50 at 48 h: 48.3 mg/kg
[11]; PADH1-UPC2
  effect on FLC tolerance in FLC disk diffusion, all four strains: made FLC fungicidal
C. albicans [12]
  Synergistic lethal concentrations: 6.25 µM

## bleomycin sulfate
C. albicans [7]
  concentration that renders FLC fungicidal (no recovery on YPD solid medium): ≤ 3.125 µM
mice
  LD50: 21.57 mg/kg
[11]; cmp1-aid∆/cmp1-aid∆
  effect on FLC tolerance in FLC disk diffusion, cmp1-aid∆/cmp1-aid∆ strain: failed to clear the zone of FLC inhibition

## polymyxin B sulfate
C. albicans [7]; FLC ≤4 μg/mL, YPD, 30 °C, 48 h
  concentration that renders FLC fungicidal (no recovery on YPD solid medium): ≤ 3.125 µM
mice
  LD50: 25 mg/kg
[11]; PADH1-UPC2
  effect on FLC tolerance in FLC disk diffusion, PADH1-UPC2 strain: unsuccessful in reducing FLC tolerance
C. albicans [12]
  Synergistic lethal concentrations: 6.25 µM
